Values of other authors, collected in US20080242731A1, “TOPICAL ANESTHESIA FORMULATION FOR BODILY CAVITIES” (T&A PHARMA PTY. LIMITED, priority 2003, published 2008).

Settings: maintained at pH 7, low concentration, within 4 weeks

In the case of `CCN(CC)CC(=O)Nc1c(C)cccc1C` [lignocaine, Lignocaine], the degradation is listed as 35%.
